These results are taken from patent publication US8399465B2, “Compounds with two fused bicyclic heteroaryl moieties as modulators of leukotriene A4 hydrolase” (Janssen Pharmaceutica NV, priority 2009, dated 2013).

Where a name gives a salt, the structure may show the parent alone.

The target of assay [1] is T1, recombinant human LTA4 hydrolase (rhLTA4H) (Homo sapiens, UniProt P09960).
T1 construct: made in house; host or cells: Spodoptera frugiperda (Sf-9) cells, baculovirus (pFastBac1)
T1 sequence (P09960 1-611): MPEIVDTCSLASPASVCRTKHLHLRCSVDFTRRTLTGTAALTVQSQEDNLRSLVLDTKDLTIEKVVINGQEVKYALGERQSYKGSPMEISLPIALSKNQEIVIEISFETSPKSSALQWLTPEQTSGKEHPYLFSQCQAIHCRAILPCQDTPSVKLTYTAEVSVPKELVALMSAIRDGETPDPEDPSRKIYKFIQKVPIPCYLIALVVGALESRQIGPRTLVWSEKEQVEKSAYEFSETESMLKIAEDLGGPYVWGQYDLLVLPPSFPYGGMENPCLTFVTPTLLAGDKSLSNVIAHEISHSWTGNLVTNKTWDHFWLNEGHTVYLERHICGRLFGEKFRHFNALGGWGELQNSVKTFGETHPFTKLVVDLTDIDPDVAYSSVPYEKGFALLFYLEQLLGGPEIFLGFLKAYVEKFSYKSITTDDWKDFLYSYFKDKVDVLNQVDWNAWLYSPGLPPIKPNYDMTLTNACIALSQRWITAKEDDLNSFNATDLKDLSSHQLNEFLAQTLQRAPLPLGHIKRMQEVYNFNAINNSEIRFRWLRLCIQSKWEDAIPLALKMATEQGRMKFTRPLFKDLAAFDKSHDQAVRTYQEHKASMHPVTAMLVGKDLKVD
Put plainly: Recombinant human LTA4 hydrolase assay for LTA4 hydrolase inhibitor activity. Type of assay: biochemical. As to conditions: rhLTA4H, LTB4 by immunoassay; single determination or average of two or more; mark after value = form tested: ′ free base, ″ hydrochloride, ^ formate; read-out: IC50. The method, boiled down:
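LTB4 formation, measured by enzyme immunoassay, was the read-out. The enzyme, recombinant human LTA4H expressed in Sf-9 insect cells (10 ng per reaction), was exposed to compound for 10 min at room temperature before hydrolysed-ester LTA4 substrate was added for 30 min. Enzyme-free negatives were included.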

In assay [2] the test system is LTB4 production in murine blood (LTA4H). Put plainly: LTB4 production by calcium ionophore-stimulated murine blood for LTA4H inhibitor activity. Type of assay: cell-based, CD-1 mice. As to conditions: Mus musculus; murine blood diluted 1 in 15, A23187 stimulated; single determination or average; mark after value = form tested: ′ free base, ″ hydrochloride, ^ formate; read-out: IC50. The method, boiled down: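 LTB4 was measured by ELISA in supernatants after calcium ionophore A23187 stimulation (final 7 μg/mL, 30 min, 37° C) of CD-1 mouse blood collected on heparin. Compound was preincubated with the blood for 15 min beforehand. Values come from one determination or average several.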

The IC50 is the concentration that inhibits the measured activity by half.

Regarding `CC(=O)N[C@H]1C[C@H]2CC[C@@H](C1)N2Cc1coc2cc(Oc3nc4ccccc4s3)ccc12` [Example 181, meso-endo-N-{8-[6-(Benzothiazol-2-yloxy)-benzofuran-3-ylmethyl]-8-aza-bicyclo[3.2.1]oct-3-yl}-acetamide], the 50% inhibitory concentration (IC50) in assay [1] turned out to be 3 nM; in assay [2], 33 nM.
In the same order, the values of `FC1CCN(Cc2coc3cc(Oc4nc5ncccc5s4)ccc23)CC1` [Example 270, 2-[3-(4-Fluoro-piperidin-1-ylmethyl)-benzofuran-6-yloxy]-thiazolo[4,5-b]pyridine formate] are 26 nM and 100 nM.
For the molecule `CC(=O)NC1CCN(C(=O)c2coc3cc(Oc4nc5ncccc5s4)ccc23)CC1` [Example 368, N-{1-[6-(Thiazolo[4,5-b]pyridin-2-yloxy)-benzofuran-3-carbonyl]-piperidin-4-yl}-acetamide], the values for the IC50 in assay [1] and in assay [2] were 26 nM and 170 nM, respectively.
On to `COC(=O)CC1CCN(Cc2c[nH]c3cc(Oc4nc5ccccc5s4)ccc23)CC1` [Example 141, {1-[6-(Benzothiazol-2-yloxy)-1H-indol-3-ylmethyl]-piperidin-4-yl}-acetic acid methyl ester], for which the IC50 in assay [1] was 20 nM; in assay [2] it was 640 nM.
In the case of `CC(=O)N[C@H]1C[C@H]2CC[C@@H](C1)N2Cc1cc2cc(Oc3nc4ncccc4s3)ccc2o1` [Example 87, meso-endo-N-{8-[5-(Thiazolo[4,5-b]pyridin-2-yloxy)-benzofuran-2-ylmethyl]-8-aza-bicyclo[3.2.1]oct-3-yl}-acetamide], the IC50 in assay [1] was determined as 35 nM; in assay [2], 77 nM.
In the same order, the values of `NC(=O)[C@H]1CCCN(Cc2c[nH]c3cc(Oc4nc5ccccc5s4)ccc23)C1` [Example 27, (3S)-1-[6-(Benzothiazol-2-yloxy)-1H-indol-3-ylmethyl]-piperidine-3-carboxylic acid amide] are 19 nM and 136 nM.
For `FC1CCCN(Cc2coc3cc(Oc4nc5ncccc5s4)ccc23)C1` (stereo not drawn) [Example 350, 2-[3-(3-Fluoro-piperidin-1-ylmethyl)-benzofuran-6-yloxy]-thiazolo[4,5-b]pyridine] the same measures were 26 nM and 38 nM.
In the same order, the values of `F[C@@H]1CCN(Cc2coc3cc(Oc4nc5ncccc5s4)ccc23)C1` [Example 328, (R)-2-[3-(3-Fluoro-pyrrolidin-1-ylmethyl)-benzofuran-6-yloxy]-thiazolo[4,5-b]pyridine] are 12 nM and 93 nM.
Turning to `O=C(O)CN[C@H]1C[C@H]2CC[C@@H](C1)N2Cc1cc2ccc(Oc3nc4ccccc4s3)cc2o1` [Example 81, meso-endo-{8-[6-(Benzothiazol-2-yloxy)-benzofuran-2-ylmethyl]-8-aza-bicyclo[3.2.1]oct-3-ylamino}-acetic acid], the IC50 in assay [1] worked out at 29 nM; in assay [2], 450 nM.
In the same order, the values of `c1cnc2nc(Oc3ccc4c(CN5CCc6c(sc7ccccc67)C5)c[nH]c4c3)sc2c1` [Example 35, 2-[6-(Thiazolo[4,5-b]pyridin-2-yloxy)-1H-indol-3-ylmethyl]-1,2,3,4-tetrahydro-benzo[4,5]thieno[2,3-c]pyridine] are 34 nM and 234 nM.
In the same order, the values of `O=c1[nH]ncn1C1CCN(Cc2coc3cc(Oc4nc5ncccc5s4)ccc23)CC1` [Example 351, 4-{1-[6-(Thiazolo[4,5-b]pyridin-2-yloxy)-benzofuran-3-ylmethyl]-piperidin-4-yl}-2,4-dihydro-[1,2,4]triazol-3-one] are 2 nM and 94 nM.
In the same order, the values of `NC(=O)C1CCN(Cc2c[nH]c3cc(Oc4nc5ccccc5s4)ccc23)CC1` [Example 21, 1-[6-(Benzothiazol-2-yloxy)-1H-indol-3-ylmethyl]-piperidine-4-carboxylic acid amide] are 5 nM and 161 nM.
With `CS(=O)(=O)C1CCN(Cc2c[nH]c3cc(Oc4nc5ccccc5s4)ccc23)CC1` [Example 4, 2-[3-(4-Methanesulfonyl-piperidin-1-ylmethyl)-1H-indol-6-yloxy]-benzothiazole], the figures for the IC50 in assay [1] and in assay [2] were 23 nM and 190 nM, respectively.
As for `NC(=O)C1CCN(Cc2c[nH]c3cc(Oc4nc5ccccc5s4)cnc23)CC1` [Example 33, 1-[6-(Benzothiazol-2-yloxy)-1H-pyrrolo[3,2-b]pyridin-3-ylmethyl]-piperidine-4-carboxylic acid amide], the concentration for half-maximal inhibition (IC50) in assay [1] was found to be 42 nM; in assay [2], 1520 nM.
In the same order, the values of `CCCOC1CN(Cc2coc3cc(Oc4nc5ncccc5s4)ccc23)C1` [Example 314, 2-[3-(3-Propoxy-azetidin-1-ylmethyl)-benzofuran-6-yloxy]-thiazolo[4,5-b]pyridine] are 15 nM and 28 nM.
For `c1cnc2nc(Oc3ccc4c(CNC5CCCC5)coc4c3)sc2c1` [Example 298, Cyclopentyl-[6-(thiazolo[4,5-b]pyridin-2-yloxy)-benzofuran-3-ylmethyl]-amine] the same measures were 12 nM and 17 nM.
As for `CC1CC(C)CN(Cc2coc3cc(Oc4nc5ncccc5s4)ccc23)C1` (stereo not drawn) [Example 281, 2-[3-(3,5-Dimethyl-piperidin-1-ylmethyl)-benzofuran-6-yloxy]-thiazolo[4,5-b]pyridine formate], the IC50 in assay [1] is 28 nM; in assay [2], 77 nM.
For `CC(=O)N1CCN(C(=O)c2coc3cc(Oc4nc5ncccc5s4)ccc23)CC1` [Example 380, 1-{4-[6-(Thiazolo[4,5-b]pyridin-2-yloxy)-benzofuran-3-carbonyl]-piperazin-1-yl}-ethanone] the same measures were 7 nM and 35 nM.
In the same order, the values of `CN(C)Cc1coc2cc(Oc3nc4ncccc4s3)ccc12` [Example 361, Dimethyl-[6-(thiazolo[4,5-b]pyridin-2-yloxy)-benzofuran-3-ylmethyl]-amine] are 20 nM and 10 nM.
In the same order, the values of `O=C(CO)N1CC2CN(Cc3coc4cc(Oc5nc6ncccc6s5)ccc34)CC2C1` (stereo not drawn) [Example 355, 2-Hydroxy-1-{5-[6-(thiazolo[4,5-b]pyridin-2-yloxy)-benzofuran-3-ylmethyl]-hexahydro-pyrrolo[3,4-c]pyrrol-2-yl}-ethanone] are 3 nM and 68 nM.
Consider `c1ccc2c(c1)CN(Cc1c[nH]c3cc(Oc4nc5ccccc5s4)ccc13)C2` [Example 6, 2-[3-(1,3-Dihydro-isoindol-2-ylmethyl)-1H-indol-6-yloxy]-benzothiazole], for which the results for the IC50 in assay [1] and in assay [2] were 17 nM and 968 nM, respectively.
For `Cc1ccnc2nc(Oc3ccc4c(CN5CCOCC5)c[nH]c4c3)sc12` [Example 57, 7-Methyl-2-(3-morpholin-4-ylmethyl-1H-indol-6-yloxy)-thiazolo[4,5-b]pyridine] the same measures were 93 nM and 444 nM.
In the same order, the values of `NC(=O)N1C[C@@H]2C[C@H]1CN2` [Inter. 17, (1S,4S)-2,5-Diaza-bicyclo[2.2.1]heptane-2-carboxylic acid amide hydrochloride] are 37 nM and 1000 nM.
For `O=C(C1CCN(Cc2c[nH]c3cc(Oc4nc5ccccc5s4)ccc23)CC1)N1CCCC1` [Example 23, {1-[6-(Benzothiazol-2-yloxy)-1H-indol-3-ylmethyl]-piperidin-4-yl}-pyrrolidin-1-yl-methanone] the same measures were 5 nM and 114 nM.
Take `CC(=O)N[C@H]1C[C@H]2CC[C@@H](C1)N2Cc1c[nH]c2cc(Oc3nc4cccnc4s3)ccc12` [Example 43, meso-endo-N-{8-[6-(Thiazolo[5,4-b]pyridin-2-yloxy)-1H-indol-3-ylmethyl]-8-aza-bicyclo[3.2.1]oct-3-yl}-acetamide]: the IC50 in assay [1] stood at 6 nM; in assay [2], 409 nM.
`O=C1CN(Cc2coc3cc(Oc4nc5ncccc5s4)ccc23)CCN1` [Example 342, 4-[6-(Thiazolo[4,5-b]pyridin-2-yloxy)-benzofuran-3-ylmethyl]-piperazin-2-one]: the figures for the IC50 in assay [1] and in assay [2] were 16 nM and 230 nM, respectively.
In the same order, the values of `CC(C)(C)OC(=O)N1CC2CN(Cc3c[nH]c4cc(Oc5nc6ccccc6s5)ccc34)CC2C1` (stereo not drawn) [Example 146, 5-[6-(Benzothiazol-2-yloxy)-1H-indol-3-ylmethyl]-hexahydro-pyrrolo[3,4-c]pyrrole-2-carboxylic acid tert-butyl ester] are 17 nM and 582 nM.
